Drawing on the supplement of paper PMC10307832, this text covers relative viability for one cell line.

What all share (assay): relative viability (nuclei count vs DMSO), 5 days (fraction); higher = more cells survive
Compound in the experiment “IPA-3 + Pictilisib”: C1=CC=C2C(=C1)C=CC(=C2SSC3=C(C=CC4=CC=CC=C43)O)O [IPA-3] + CS(=O)(=O)N1CCN(Cc2cc3nc(-c4cccc5[nH]ncc45)nc(N4CCOCC4)c3s2)CC1 [Pictilisib] (partner 1 µM)
A digest of the protocol: (§1)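 One day after seeding in 1536-well plates, lung cancer cell lines were dosed by pin tool. Dosing was either single-drug or a fixed anchor-drug dose plus five library-drug doses (not always all listed) in √10 steps. After 5 days, nuclei were stained in one fix-and-stain step and counted on 4× images, and relative viability is the nuclei count of treated wells over that of vehicle wells, given as the median of duplicate plates.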

Compound in the experiment “Doramapimod + Tozasertib”: Cc1ccc(-n2nc(C(C)(C)C)cc2NC(=O)Nc2ccc(OCCN3CCOCC3)c3ccccc23)cc1 [Doramapimod] + Cc1cc(Nc2cc(N3CCN(C)CC3)nc(Sc3ccc(NC(=O)C4CC4)cc3)n2)n[nH]1 [Tozasertib] (partner 0.1 µM)
A digest of the protocol: as §1

Compound in the experiment “RAF265 + Trametinib”: Cn1c(Nc2ccc(C(F)(F)F)cc2)nc2cc(Oc3ccnc(-c4ncc(C(F)(F)F)[nH]4)c3)ccc21 [RAF265] + CC(=O)Nc1cccc(-n2c(=O)n(C3CC3)c(=O)c3c(Nc4ccc(I)cc4F)n(C)c(=O)c(C)c32)c1 [Trametinib] (partner 0.02 µM)
In outline: as §1

Compound in the experiment “RAF265 + Decitabine”: Cn1c(Nc2ccc(C(F)(F)F)cc2)nc2cc(Oc3ccnc(-c4ncc(C(F)(F)F)[nH]4)c3)ccc21 [RAF265] + Nc1ncn([C@H]2C[C@H](O)[C@@H](CO)O2)c(=O)n1 [Decitabine] (partner 2 µM)
A digest of the protocol:
as §1

Consider UMC-11, for which the relative viability with IPA-3 + Pictilisib (first compound 0.2 µM) amounted to 0.982; in the experiment with IPA-3 + Pictilisib (first compound 0.6325 µM), 0.815; with IPA-3 + Pictilisib (first compound 2 µM), 0.776; in the experiment with IPA-3 + Pictilisib (first compound 6.325 µM) it was 0.665; in the experiment with IPA-3 + Pictilisib (first compound 20 µM), 0.763; with Doramapimod + Tozasertib (first compound 0.02 µM) it was 0.2. Further, the relative viability in the experiment with Doramapimod + Tozasertib (first compound 0.06325 µM) turned out to be 0.174; with Doramapimod + Tozasertib (first compound 0.2 µM), 0.199; with Doramapimod + Tozasertib (first compound 0.6325 µM), 0.195; in the experiment with Doramapimod + Tozasertib (first compound 2 µM) it was 0.205; in the experiment with RAF265 + Trametinib (first compound 0.01 µM) it was 0.749; with RAF265 + Trametinib (first compound 0.03162 µM), 0.634. For the same cell line, the relative viability came out at 0.748 in the experiment with RAF265 + Trametinib (first compound 0.1 µM); 0.855 in the experiment with RAF265 + Trametinib (first compound 0.3162 µM); 0.649 in the experiment with RAF265 + Trametinib (first compound 1 µM); 0.621 in the experiment with RAF265 + Decitabine (first compound 0.01 µM); 0.404 with RAF265 + Decitabine (first compound 0.03162 µM); 0.621 in the experiment with RAF265 + Decitabine (first compound 0.1 µM). Also, the results for the relative viability with RAF265 + Decitabine (first compound 0.3162 µM) and with RAF265 + Decitabine (first compound 1 µM) were 0.604 and 0.363, respectively.
